# What was measured:
# Test in all cases: cells
# Format in all cases: functional, cell-based, Homo sapiens
# [1] = test system: LAMA-84; details: Homo sapiens, LAMA-84;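 further: growth inhibition of LAMA-84 cells, read out with a cell viability assay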
# Description: SANGER: Inhibition of human LAMA-84 cell growth in a cell viability assay.
# [2] = test system: A101D; details: Homo sapiens, A101D;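 further: growth inhibition of the cell line, measured with a viability assay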
# Description: SANGER: Inhibition of human A101D cell growth in a cell viability assay.
# [3] = test system: D-392MG; details: Homo sapiens, D-392MG
# [4] = test system: SCC-15; details: Homo sapiens, SCC-15;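 further: growth inhibition of SCC-15 cells, read out with a cell viability assay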
# Description: SANGER: Inhibition of human SCC-15 cell growth in a cell viability assay.
# [5] = test system: PSN1; details: Homo sapiens, PSN1;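 further: suppression of growth of human PSN1 cells, read out by a cell viability assay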
# Description: SANGER: Inhibition of human PSN1 cell growth in a cell viability assay.
# [6] = test system: SK-LMS-1; details: Homo sapiens, SK-LMS-1;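 further: growth inhibition of human SK-LMS-1 cells, read out with a cell viability assay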
# Description: SANGER: Inhibition of human SK-LMS-1 cell growth in a cell viability assay.
# [7] = test system: TE-6; details: Homo sapiens, TE-6;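 further: growth inhibition of TE-6 cells, read out with a cell viability assay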
# Description: SANGER: Inhibition of human TE-6 cell growth in a cell viability assay.
# [8] = test system: IST-MES1; details: Homo sapiens, IST-MES1;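 further: growth inhibition of IST-MES1 cells, measured with a cell viability assay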
# Description: SANGER: Inhibition of human IST-MES1 cell growth in a cell viability assay.
# [9] = test system: Becker; details: Homo sapiens, Becker;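 further: growth inhibition of Becker cells, read out with a cell viability assay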
# Description: SANGER: Inhibition of human Becker cell growth in a cell viability assay.
# [10] = test system: RKO; details: Homo sapiens, RKO;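 further: growth inhibition of human RKO cells, read out with a cell viability assay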
# Description: SANGER: Inhibition of human RKO cell growth in a cell viability assay.
# [11] = test system: DEL; details: Homo sapiens, DEL;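 further: growth inhibition of the human DEL cell line, read out with a cell viability assay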
# Description: SANGER: Inhibition of human DEL cell growth in a cell viability assay.
# [12] = test system: MHH-PREB-1; details: Homo sapiens, MHH-PREB-1;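 further: cell viability assay measuring inhibition of proliferation of human MHH-PREB-1 cells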
# Description: SANGER: Inhibition of human MHH-PREB-1 cell growth in a cell viability assay.
# [13] = test system: HT-144; details: Homo sapiens, HT-144
# Description: SANGER: Inhibition of human HT-144 cell growth in a cell viability assay.
# [14] = test system: GI-ME-N; details: Homo sapiens, GI-ME-N;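 further: growth inhibition of human GI-ME-N cells, read out with a cell viability assay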
# Description: SANGER: Inhibition of human GI-ME-N cell growth in a cell viability assay.
# [15] = test system: NCI-H1770; details: Homo sapiens, NCI-H1770;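 further: growth inhibition of NCI-H1770 cells determined with a viability readout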
# Description: SANGER: Inhibition of human NCI-H1770 cell growth in a cell viability assay.
# [16] = test system: KINGS-1; details: Homo sapiens, KINGS-1;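 further: cell viability assay measuring suppression of KINGS-1 cell growth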
# Description: SANGER: Inhibition of human KINGS-1 cell growth in a cell viability assay.
# [17] = test system: CW-2; details: Homo sapiens, CW-2;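 further: growth inhibition of CW-2 cells, read out by a cell viability assay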
# Description: SANGER: Inhibition of human CW-2 cell growth in a cell viability assay.
# [18] = test system: MOLT-4; details: Homo sapiens, MOLT-4;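 further: growth inhibition of MOLT-4 cells, determined with a cell viability readout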
# Description: SANGER: Inhibition of human MOLT-4 cell growth in a cell viability assay.
# [19] = test system: NB13; details: Homo sapiens, NB13;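 further: cell viability readout measuring growth inhibition of human NB13 cells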
# Description: SANGER: Inhibition of human NB13 cell growth in a cell viability assay.
# [20] = test system: J-RT3-T3-5; details: Homo sapiens, J-RT3-T3-5;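 further: cell viability assay measuring growth inhibition of human J-RT3-T3-5 cells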
# Description: SANGER: Inhibition of human J-RT3-T3-5 cell growth in a cell viability assay.
# [21] = test system: KG-1; details: Homo sapiens, KG-1;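 further: growth inhibition of KG-1 cells, read out by a cell viability assay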
# Description: SANGER: Inhibition of human KG-1 cell growth in a cell viability assay.
# [22] = test system: GT3TKB; details: Homo sapiens, GT3TKB;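 further: growth inhibition of the cell line, read out with a cell viability assay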
# Description: SANGER: Inhibition of human GT3TKB cell growth in a cell viability assay.
# [23] = test system: EW-13; details: Homo sapiens, EW-13;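 further: growth inhibition of EW-13 cells, read out with a cell viability assay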
# Description: SANGER: Inhibition of human EW-13 cell growth in a cell viability assay.
# [24] = test system: A704; details: Homo sapiens, A704;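 further: growth inhibition of human A704 cells, read out with a cell viability assay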
# Description: SANGER: Inhibition of human A704 cell growth in a cell viability assay.
# [25] = test system: MFM-223; details: Homo sapiens, MFM-223
# Description: SANGER: Inhibition of human MFM-223 cell growth in a cell viability assay.
# [26] = test system: MLMA; details: Homo sapiens, MLMA;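 further: growth inhibition of MLMA cells (human), determined through a cell viability readout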
# Description: SANGER: Inhibition of human MLMA cell growth in a cell viability assay.
# [27] = test system: SW 962; details: Homo sapiens, SW 962;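 further: growth inhibition of human SW962 cells, read out by a cell viability assay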
# Description: SANGER: Inhibition of human SW962 cell growth in a cell viability assay.
# [28] = test system: EW-1; details: Homo sapiens, EW-1;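 further: growth inhibition of the human EW-1 cell line, read out by a cell viability assay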
# Description: SANGER: Inhibition of human EW-1 cell growth in a cell viability assay.
# [29] = test system: LXF-289 cell line; details: Homo sapiens, LXF-289
# Description: SANGER: Inhibition of human LXF-289 cell growth in a cell viability assay.
# [30] = test system: KURAMOCHI; details: Homo sapiens, KURAMOCHI;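 further: growth inhibition of KURAMOCHI cells, read out with a cell viability assay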
# Description: SANGER: Inhibition of human KURAMOCHI cell growth in a cell viability assay.
# [31] = test system: SNU-C2B; details: Homo sapiens, SNU-C2B;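 further: cell viability readout used to measure compound-driven suppression of SNU-C2B cell proliferation, IC50 marking half-maximal growth inhibition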
# Description: SANGER: Inhibition of human SNU-C2B cell growth in a cell viability assay.
# [32] = test system: QIMR-WIL; details: Homo sapiens, QIMR-WIL;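 further: growth inhibition of QIMR-WIL cells, read out with a cell viability assay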
# Description: SANGER: Inhibition of human QIMR-WIL cell growth in a cell viability assay.
# [33] = test system: EKVX; details: Homo sapiens, EKVX;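 further: growth inhibition of human EKVX cells, read out with a cell viability assay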
# Description: SANGER: Inhibition of human EKVX cell growth in a cell viability assay.
# [34] = test system: OS-RC-2; details: Homo sapiens, OS-RC-2;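 further: growth inhibition of human OS-RC-2 cells, measured by a cell viability assay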
# Description: SANGER: Inhibition of human OS-RC-2 cell growth in a cell viability assay.
# [35] = test system: MS-1; details: Homo sapiens, MS-1;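 further: growth inhibition of MS-1 cells, read out by cell viability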
# Description: SANGER: Inhibition of human MS-1 cell growth in a cell viability assay.
# [36] = test system: D-263MG; details: Homo sapiens, D-263MG
# Description: SANGER: Inhibition of human D-263MG cell growth in a cell viability assay.
# [37] = test system: EOL1; details: Homo sapiens, EOL1;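 further: growth inhibition of EoL-1 cells, read out by a cell viability assay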
# Description: SANGER: Inhibition of human EoL-1-cell cell growth in a cell viability assay.
# [38] = test system: HOP-62; details: Homo sapiens, HOP-62;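 further: cell growth inhibition determined with a viability assay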
# Description: SANGER: Inhibition of human HOP-62 cell growth in a cell viability assay.
# [39] = test system: CTV-1; details: Homo sapiens, CTV-1;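 further: growth inhibition of the cell line, read out with a cell viability assay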
# Description: SANGER: Inhibition of human CTV-1 cell growth in a cell viability assay.
# [40] = test system: NCI-H1355; details: Homo sapiens, NCI-H1355;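 further: growth inhibition of human NCI-H1355 cells, read out by a cell viability assay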
# Description: SANGER: Inhibition of human NCI-H1355 cell growth in a cell viability assay.
# [41] = test system: BB65-RCC; details: Homo sapiens, BB65-RCC;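 further: growth inhibition of the cell line, measured with a cell viability assay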
# Description: SANGER: Inhibition of human BB65-RCC cell growth in a cell viability assay.
# [42] = test system: RPMI-8226; details: Homo sapiens, RPMI-8226
# Description: SANGER: Inhibition of human RPMI-8226 cell growth in a cell viability assay.
# [43] = test system: BT-474; details: Homo sapiens, BT-474
# Description: SANGER: Inhibition of human BT-474 cell growth in a cell viability assay.
# [44] = test system: SK-NEP-1; details: Homo sapiens, SK-NEP-1;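 further: growth inhibition of human SK-NEP-1 cells, read out by a cell viability assay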
# Description: SANGER: Inhibition of human SK-NEP-1 cell growth in a cell viability assay.
# [45] = test system: LB373-MEL-D; details: Homo sapiens, LB373-MEL-D;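 further: growth inhibition of the cell line, read out in a cell viability assay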
# Description: SANGER: Inhibition of human LB373-MEL-D cell growth in a cell viability assay.
# [46] = test system: OCI-AML2; details: Homo sapiens, OCI-AML2;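 further: growth inhibition of OCI-AML2 cells, read out with a cell viability assay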
# Description: SANGER: Inhibition of human OCI-AML2 cell growth in a cell viability assay.
# [47] = test system: SW982; details: Homo sapiens, SW982;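 further: growth inhibition of SW982 cells, read out with a cell viability assay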
# Description: SANGER: Inhibition of human SW982 cell growth in a cell viability assay.
# [48] = test system: DMS-79; details: Homo sapiens, DMS-79;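 further: growth inhibition measured with a cell viability assay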
# Description: SANGER: Inhibition of human DMS-79 cell growth in a cell viability assay.
# [49] = test system: KMOE-2; details: Homo sapiens, KMOE-2;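 further: growth inhibition of human KMOE-2 cells, read out with a cell viability assay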
# Description: SANGER: Inhibition of human KMOE-2 cell growth in a cell viability assay.
compound,measurement,setting,value
CC(C)CCN1c2nc(Nc3cc(F)c(O)c(F)c3)ncc2N(C)C(=O)C1C (stereo not drawn),IC50,[1],1.13 µM
same,IC50,[2],4.97 µM
same,IC50,[3],> 5 µM
same,IC50,[4],> 5 µM
same,IC50,[5],3.06 µM
same,IC50,[6],> 5 µM
same,IC50,[7],> 5 µM
same,IC50,[8],> 5 µM
same,IC50,[9],2.66 µM
same,IC50,[10],4.73 µM
same,IC50,[11],> 5 µM
same,IC50,[12],4.4 µM
same,IC50,[13],> 5 µM
same,IC50,[14],> 5 µM
same,IC50,[15],> 5 µM
same,IC50,[16],> 5 µM
same,IC50,[17],> 5 µM
same,IC50,[18],3.39 µM
same,IC50,[19],> 5 µM
same,IC50,[20],> 5 µM
same,IC50,[21],3.61 µM
same,IC50,[22],3.76 µM
same,IC50,[23],> 5 µM
same,IC50,[24],> 5 µM
same,IC50,[25],> 5 µM
same,IC50,[26],> 5 µM
same,IC50,[27],> 5 µM
same,IC50,[28],2.75 µM
same,IC50,[29],4.4 µM
same,IC50,[30],> 5 µM
same,IC50,[31],3.39 µM
same,IC50,[32],2.08 µM
same,IC50,[33],> 5 µM
same,IC50,[34],> 5 µM
same,IC50,[35],> 5 µM
same,IC50,[36],> 5 µM
same,IC50,[37],1.02 µM
same,IC50,[38],4.31 µM
same,IC50,[39],0.479 µM
same,IC50,[40],> 5 µM
same,IC50,[41],3.45 µM
same,IC50,[42],> 5 µM
same,IC50,[43],> 5 µM
same,IC50,[44],2.04 µM
same,IC50,[45],> 5 µM
same,IC50,[46],> 5 µM
same,IC50,[47],> 5 µM
C#Cc1cccc(Nc2ncnc3cc(OCCOC)c(OCCOC)cc23)c1 [ERLOTINIB],IC50,[1],> 2 µM
same,IC50,[2],> 2 µM
same,IC50,[3],> 2 µM
same,IC50,[4],> 2 µM
same,IC50,[5],> 2 µM
same,IC50,[6],> 2 µM
same,IC50,[7],> 2 µM
same,IC50,[8],> 2 µM
same,IC50,[9],> 2 µM
same,IC50,[10],> 2 µM
same,IC50,[48],> 2 µM
same,IC50,[11],> 2 µM
same,IC50,[12],> 2 µM
same,IC50,[13],> 2 µM
same,IC50,[14],> 2 µM
same,IC50,[15],> 2 µM
same,IC50,[16],> 2 µM
same,IC50,[17],> 2 µM
same,IC50,[18],> 2 µM
same,IC50,[19],> 2 µM
same,IC50,[20],> 2 µM
same,IC50,[21],> 2 µM
same,IC50,[22],> 2 µM
same,IC50,[23],> 2 µM
same,IC50,[49],> 2 µM
same,IC50,[25],> 2 µM
same,IC50,[26],> 2 µM
same,IC50,[27],> 2 µM
same,IC50,[28],> 2 µM
same,IC50,[29],> 2 µM
same,IC50,[30],> 2 µM
same,IC50,[32],> 2 µM
same,IC50,[33],1.12 µM
same,IC50,[34],> 2 µM
same,IC50,[35],> 2 µM
same,IC50,[36],> 2 µM
same,IC50,[37],> 2 µM
same,IC50,[38],> 2 µM
same,IC50,[39],> 2 µM
same,IC50,[40],> 2 µM
same,IC50,[41],> 2 µM
same,IC50,[43],> 2 µM
same,IC50,[44],> 2 µM
same,IC50,[45],> 2 µM
same,IC50,[46],> 2 µM
CN(C)C(=N)NC(=N)N [METFORMIN],IC50,[1],> 20000 µM
same,IC50,[2],> 20000 µM
same,IC50,[3],> 20000 µM
same,IC50,[4],> 20000 µM
same,IC50,[5],> 20000 µM
same,IC50,[7],14200 µM
same,IC50,[8],> 20000 µM
same,IC50,[9],> 20000 µM
same,IC50,[10],> 20000 µM
same,IC50,[48],5970 µM
same,IC50,[12],11600 µM
same,IC50,[13],> 20000 µM
same,IC50,[14],> 20000 µM
same,IC50,[15],4100 µM
same,IC50,[16],> 20000 µM
same,IC50,[17],4120 µM
same,IC50,[18],> 20000 µM
same,IC50,[20],> 20000 µM
same,IC50,[21],16800 µM
same,IC50,[22],> 20000 µM
same,IC50,[49],> 20000 µM
same,IC50,[25],> 20000 µM
same,IC50,[26],> 20000 µM
same,IC50,[29],12000 µM
same,IC50,[30],> 20000 µM
same,IC50,[31],> 20000 µM
same,IC50,[32],> 20000 µM
same,IC50,[33],> 20000 µM
same,IC50,[34],13000 µM
same,IC50,[35],> 20000 µM
same,IC50,[36],> 20000 µM
same,IC50,[37],1820 µM
same,IC50,[39],1970 µM
same,IC50,[40],> 20000 µM
same,IC50,[43],> 20000 µM
same,IC50,[44],15000 µM
same,IC50,[46],> 20000 µM
same,IC50,[47],> 20000 µM
CCN(CC)CCCCNc1ncc2cc(-c3cc(OC)cc(OC)c3)c(NC(=O)NC(C)(C)C)nc2n1 [PD-173074],IC50,[1],> 2 µM
same,IC50,[2],> 2 µM
same,IC50,[3],> 2 µM
same,IC50,[4],> 2 µM
same,IC50,[5],> 2 µM
same,IC50,[7],> 2 µM
same,IC50,[8],> 2 µM
same,IC50,[9],> 2 µM
same,IC50,[10],> 2 µM
same,IC50,[11],> 2 µM
same,IC50,[12],> 2 µM
same,IC50,[13],> 2 µM
same,IC50,[14],> 2 µM
same,IC50,[15],> 2 µM
same,IC50,[16],> 2 µM
same,IC50,[17],> 2 µM
same,IC50,[18],> 2 µM
same,IC50,[19],> 2 µM
same,IC50,[20],> 2 µM
same,IC50,[21],0.0513 µM
same,IC50,[22],> 2 µM
same,IC50,[23],> 2 µM
same,IC50,[24],> 2 µM
same,IC50,[25],0.216 µM
same,IC50,[26],> 2 µM
same,IC50,[27],0.79 µM
same,IC50,[28],> 2 µM
same,IC50,[29],> 2 µM
same,IC50,[30],> 2 µM
same,IC50,[31],> 2 µM
same,IC50,[32],> 2 µM
same,IC50,[33],> 2 µM
same,IC50,[34],> 2 µM
same,IC50,[35],> 2 µM
same,IC50,[36],0.712 µM
same,IC50,[37],0.33 µM
same,IC50,[39],> 2 µM
same,IC50,[40],> 2 µM
same,IC50,[41],> 2 µM
same,IC50,[42],> 2 µM
same,IC50,[43],> 2 µM
same,IC50,[44],> 2 µM
same,IC50,[46],> 2 µM
same,IC50,[47],> 2 µM
Cn1cnc2c(F)c(Nc3ccc(Br)cc3Cl)c(C(=O)NOCCO)cc21 [SELUMETINIB],IC50,[1],0.456 µM
same,IC50,[2],0.24 µM
same,IC50,[3],> 4 µM
same,IC50,[4],> 4 µM
same,IC50,[5],0.366 µM
same,IC50,[7],> 4 µM
same,IC50,[8],> 4 µM
same,IC50,[9],> 4 µM
same,IC50,[10],0.248 µM
same,IC50,[11],> 4 µM
same,IC50,[12],> 4 µM
same,IC50,[13],0.089 µM
same,IC50,[14],> 4 µM
same,IC50,[15],> 4 µM
same,IC50,[16],> 4 µM
same,IC50,[17],> 4 µM
same,IC50,[18],> 4 µM
same,IC50,[19],> 4 µM
same,IC50,[20],> 4 µM
same,IC50,[21],0.895 µM
same,IC50,[22],> 4 µM
same,IC50,[23],> 4 µM
same,IC50,[24],> 4 µM
same,IC50,[25],> 4 µM
same,IC50,[26],> 4 µM
same,IC50,[27],> 4 µM
same,IC50,[28],> 4 µM
same,IC50,[29],> 4 µM
same,IC50,[30],> 4 µM
same,IC50,[31],> 4 µM
same,IC50,[32],1.34 µM
same,IC50,[33],> 4 µM
same,IC50,[34],2.4 µM
same,IC50,[35],> 4 µM
same,IC50,[36],1.18 µM
same,IC50,[37],0.145 µM
same,IC50,[39],> 4 µM
same,IC50,[40],> 4 µM
same,IC50,[41],1.84 µM
same,IC50,[42],0.74 µM
same,IC50,[43],> 4 µM
same,IC50,[44],> 4 µM
same,IC50,[46],> 4 µM
same,IC50,[47],> 4 µM
